# Tested on: mice
# Assay: hot plate test (analgesic effect) after intravenous or oral application
# Assay type: in vivo
# Details: intravenous injection, dalargin dose 10.0 mg/kg
# Source text: Dalargin was given either in solution, or after sorptive binding to nanoparticles. The groups (n=10) are as follows:
# Dalargin was given either in solution, or after sorptive binding to nanoparticles. The data were collected at different time points following oral application.
# Dalargin was given either in solution, or after sorptive binding to nanoparticles that were stabilized with Dextran 12.000.
# Dalargin was adsorbed to poly(butyl cyanoacrylate) nanoparticles which were stabilized with polysorbate 85.
# After this time, the preparation was injected intravenously into mice at a dalargin dose of 10.0 mg/kg. Various preparations include pure dalargin solution and empty nanoparticles served as controls.
# Activity threshold was measured with the hot plate test.
# 2. […] The analgesia was determined 30, 45, 60, 90, 120 and 150 min after p.o. application.
# 4. To test the question whether other stabilizers may be used to achieve the desired effect, nanoparticles were investigated in which the stabilizer was the low molecular size dextran 12,000. The dextran 12,000 stabilized nanoparticles of Example 2 were loaded with dalargin, and the analgesic effect was determined in the hot plate test after intravenous injection into mice.
substance,measurement,setting,value
dalargin,"analgesic effect, hot plate test",,did not exhibit any analgesic effect
same,"analgesic effect, hot plate test",listed as dalargin alone,None of the control groups (empty nanoparticles and dalargin alone) exhibited any analgesic effects
